In patent publication US8729047B2, “Compositions for inhibiting redox-sensitive GTPases” (Board of Regents, The University of Texas System, priority 2010, dated 2014):
Read-outs that look alike come from different tables or passages of the source.

Key:
Format in all cases: binding
RhoA = target: T1, RhoA (Homo sapiens, UniProt P61586); assay: Guanine nucleotide exchange of [3H]GDP-loaded GTPase with 6-TGDP (FIG. 13A)
T1 construct: made in house; host or cells: E. coli
Protocol: (§1) FIG. 13. Guanine nucleotide exchange of small GTPases with 6-TGDP. (A) To monitor 6-TGDP-mediated GTPase GDP dissociation, [^3H]GDP-loaded GTPase (1 μM) was incubated with 6-TGDP (0-2000 μM) for 1 h. (B) To monitor GTPase 6-TGDP dissociation by GDP (0-2000 μM) in the presence and absence of dithiothreitol (DTT), 6-TGDP-loaded GTPase (˜1 μM) was treated with .NO2 (˜3 μM) under anaerobic conditions and was incubated with various concentrations of [^3H]GDP (0-2000 μM) in the presence and absence of DTT (10 mM) for 1 h. For all assays, aliquots were withdrawn and spotted onto nitrocellulose filters. The filters were then washed three times with an assay buffer, and radioactivity was determined using a Beckman-Coulter scintillation counter. The resultant radioactivity (dpm) values associated with GTPase-bound [^3H]GDP were converted into the fraction of mol nucleotide per mol total GTPase. The data presented represent mean and standard error values from triplicate measurements. The apparent dissociation constants (appKD values) of GTPase 6-TGDP association ([^3H]GDP dissociation, A); and 6-TGDP dissociation ([3H]GDP association, B) were obtained by fitting the data to a simple dissociation and association, respectively. […]
(§2) A kinetic assay method using radiolabeled GDP ([^3H]GDP) was established. The apparent dissociation constants (^appKD 6-TGDP) of Rho GTPases (including RhoA, Cdc42, and Rac1/2/3) and Ras with 6-TGDP were determined (FIG. 13). […]
(§3) The true dissociation constant (^trueKD 6-TGDP) of Ras, RhoC, RhoA and Rac1 for 6-TGDP was then calculated to be ˜20.7 pM, 212 μM, 208 μM, and 158 μM [6-TGDP] by using a compensation equation, ^trueKD 6-TGDP=^appKD 6-TGDP/(1+[GDP]/^trueKD GDP) (95), in conjunction with the values given [(^appKD 6-TGDP of Ras, RhoC, RhoA, and Rac1=2300, 230, 224, and 245 μM (FIG. 13) and ^trueKD GDP=9 pM, 12 μM, 13 μM and 1.8 μM, respectively. The ^trueKD GDP of Ras, RhoA and Rac1 was determined previously (Lenzen et al. Biochemistry 37, 7420-7430 (1998); Heo et al. Biochemistry 44, 6573-6585 (2005)) and the ^trueKD GDP of RhoC was further determined. […]

Ras = Ras (Homo sapiens, UniProt P01112); assay: as above; conditions: [3H]GDP-loaded GTPase 1 μM, 6-TGDP 0-2000 μM, 1 h, read-out: appKD for 6-TGDP
Protocol: as §1, §2, §3

C20S RhoC = target: T2, C20S RhoC (Homo sapiens, UniProt P08134, C20S); assay: Titration of .NO2-treated RhoC-6-TGDP complex with [3H]GDP with/without DTT (FIG. 16D); conditions: .NO2-treated 6-TGDP C20S RhoC complex, read-out: appKD for [3H]GDP
T2 construct: made in house; host or cells: E. coli
Protocol: FIG. 16. Kinetic properties of RhoC with 6-TGDP in the presence or absence of a redox agent. All kinetic analyses are described elsewhere herein. (A) ^appKD values of Rac1, RhoA, RhoC, and RhoC C20S for 6-TGDP were estimated to be 7.9, 11.6, 11.8, and 11.2 μM, respectively. ^trueKD values of Rac1, RhoA, and RhoC for 6-TGDP were then calculated to be 5.1, 10.8, 11.1, and 10.5 μM, respectively, by using a compensation equation, ^trueKD for 6-TGDP=^appKD for 6-TGDP/(1+[[^3H]GDP]/^trueKD for GDP) (Heo, J., and Hong, I. (2010) Biochemistry 49, 3965-3976), in conjunction with the values given. […] The GDP dissociation rates from RhoC C20S by NO, .NO2, and N2O3 were estimated to be 0.02×10^−3, 0.05×10^−3, and 0.04×10^−3 s^−1, respectively. […] (D) ^appKD values of RhoC for [^3H]GDP in the presence or absence of DTT were estimated to be 22.4 μM and […], respectively. ^appKD values of C20S RhoC for [^3H]GDP in the presence or absence of DTT were determined to be 24.8 μM and 25.2 μM, respectively. The regression values associated with these fits were >0.8595. […]
(d) The effect of .NO2 on the dissociation of 6-TGDP from RhoC was determined by treating the RhoC-6-TGDP complex titration with various concentrations of [^3H]GDP in the presence and absence of a reducing agent of either dithiothreitol (DTT) or β-mercaptoethanol. […]

T1 sequence (P61586 whole entry, species assumed): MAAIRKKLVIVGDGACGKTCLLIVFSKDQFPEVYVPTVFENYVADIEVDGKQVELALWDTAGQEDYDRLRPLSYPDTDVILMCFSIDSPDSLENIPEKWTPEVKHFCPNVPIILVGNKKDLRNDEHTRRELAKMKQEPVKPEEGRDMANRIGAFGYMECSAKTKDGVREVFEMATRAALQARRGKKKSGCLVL
T2 sequence (P08134 whole entry C20S): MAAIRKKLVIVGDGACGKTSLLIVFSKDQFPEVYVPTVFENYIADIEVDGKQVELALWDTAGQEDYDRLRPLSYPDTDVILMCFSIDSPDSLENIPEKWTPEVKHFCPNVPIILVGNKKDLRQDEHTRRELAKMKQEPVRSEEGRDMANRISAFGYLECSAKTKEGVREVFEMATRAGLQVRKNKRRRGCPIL
Chain of Ras (P01112 whole entry): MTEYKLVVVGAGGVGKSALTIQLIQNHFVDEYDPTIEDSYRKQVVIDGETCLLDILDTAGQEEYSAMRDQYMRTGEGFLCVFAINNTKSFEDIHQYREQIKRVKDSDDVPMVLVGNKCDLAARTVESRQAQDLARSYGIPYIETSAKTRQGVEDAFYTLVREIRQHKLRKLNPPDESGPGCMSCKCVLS

Kd (RhoA; [3H]GDP-loaded GTPase 1 μM, 6-TGDP 0-2000 μM, 1 h, FIG. 13A, read-out: appKD for 6-TGDP) [µM]	Kd (RhoA; calculated by compensation equation from appKD 6-TGDP and trueKD GDP, read-out: trueKD 6-TGDP) [µM]	Kd (Ras) [µM]	SMILES	Kd (C20S RhoC; absence of DTT) [µM]	Kd (C20S RhoC; presence of DTT) [µM]
224	208	2300	Nc1nc2c(ncn2[C@@H]2O[C@H](COP(=O)(O)OP(=O)(O)O)[C@@H](O)[C@H]2O)c(=S)[nH]1 [6-TGDP, 6-thioguanosine diphosphate]	–	–
–	–	–	Nc1nc2c(ncn2[C@@H]2O[C@H](COP(=O)(O)OP(=O)(O)O)[C@@H](O)[C@H]2O)c(=O)[nH]1 [GDP]	25.2	24.8
